Source: patent US8137705B2 (priority 2005, dated 2012)

Assays:
Assay type in all cases: cell-based
[1] = system: E. coli O157:H7; test: E. coli O157:H7 counts in water containing rumen content or feces treated with chemicals or chemical combinations; conditions: 21° C.; for E. coli O157:H7 counts (log10 cfu/ml) at min 0: 0 min; for E. coli O157:H7 counts (log10 cfu/ml) at min 2: 2 min; for E. coli O157:H7 counts (log10 cfu/ml) at min 5: 5 min; for E. coli O157:H7 counts (log10 cfu/ml) at min 10: 10 min; for E. coli O157:H7 counts (log10 cfu/ml) at min 20: 20 min; for E. coli O157:H7 counts (log10 cfu/ml) at min 30: 30 min; for E. coli O157:H7 counts (log10 cfu/ml) at min 60: 60 min; for E. coli O157:H7 counts (log10 cfu/ml) at min 120: 120 min
[2] = system: E. coli O26:H11; test: E. coli O26:H11 counts in water containing rumen content or feces treated with chemical combinations; conditions: 21° C.; for E. coli O26:H11 counts (log10 cfu/ml) at min: 0: 0 min; for E. coli O26:H11 counts (log10 cfu/ml) at min: 2: 2 min; for E. coli O26:H11 counts (log10 cfu/ml) at min: 5: 5 min; for E. coli O26:H11 counts (log10 cfu/ml) at min: 10: 10 min; for E. coli O26:H11 counts (log10 cfu/ml) at min: 20: 20 min; for E. coli O26:H11 counts (log10 cfu/ml) at min: 30: 30 min; for E. coli O26:H11 counts (log10 cfu/ml) at min: 60: 60 min; for E. coli O26:H11 counts (log10 cfu/ml) at min: 120: 120 min
[3] = system: E. coli O111:NM; test: E. coli O111:NM counts in water containing rumen content or feces treated with chemical combinations; conditions: 21° C.; for E. coli O111:NM counts (log10 cfu/ml) at min 0: 0 min; for E. coli O111:NM counts (log10 cfu/ml) at min 2: 2 min; for E. coli O111:NM counts (log10 cfu/ml) at min 5: 5 min; for E. coli O111:NM counts (log10 cfu/ml) at min 10: 10 min; for E. coli O111:NM counts (log10 cfu/ml) at min 20: 20 min; for E. coli O111:NM counts (log10 cfu/ml) at min 30: 30 min; for E. coli O111:NM counts (log10 cfu/ml) at min 60: 60 min; for E. coli O111:NM counts (log10 cfu/ml) at min 120: 120 min
[4] = water containing feces (20:1, v/w)
[5] = water containing rumen content (10:1, v/w)

Structure (SMILES): O=C([O-])c1ccccc1.[Na+] [0.1% sodium benzoate, sodium benzoate]
- E. coli O157:H7 counts (log10 cfu/ml) at min 0 [1, 4]: 5.7 log10 cfu/ml
- E. coli O157:H7 counts (log10 cfu/ml) at min 2 [1, 4]: 5.6 log10 cfu/ml
- E. coli O157:H7 counts (log10 cfu/ml) at min 5 [1, 4]: 5.4 log10 cfu/ml
- E. coli O157:H7 counts (log10 cfu/ml) at min 10 [1, 4]: 5.6 log10 cfu/ml
- E. coli O157:H7 counts (log10 cfu/ml) at min 20 [1, 4]: 5.5 log10 cfu/ml
- E. coli O157:H7 counts (log10 cfu/ml) at min 30 [1, 4]: 5.4 log10 cfu/ml
- E. coli O157:H7 counts (log10 cfu/ml) at min 60 [1, 4]: 5.5 log10 cfu/ml
- E. coli O157:H7 counts (log10 cfu/ml) at min 120 [1, 4]: 5.6 log10 cfu/ml
- E. coli O157:H7 counts (log10 cfu/ml) at min 0 [1, 5]: 5.9 log10 cfu/ml
- E. coli O157:H7 counts (log10 cfu/ml) at min 2 [1, 5]: 6.0 log10 cfu/ml
- E. coli O157:H7 counts (log10 cfu/ml) at min 5 [1, 5]: 6.0 log10 cfu/ml
- E. coli O157:H7 counts (log10 cfu/ml) at min 10 [1, 5]: 5.9 log10 cfu/ml
- E. coli O157:H7 counts (log10 cfu/ml) at min 20 [1, 5]: 6.0 log10 cfu/ml
- E. coli O157:H7 counts (log10 cfu/ml) at min 30 [1, 5]: 5.9 log10 cfu/ml
- E. coli O157:H7 counts (log10 cfu/ml) at min 60 [1, 5]: 6.0 log10 cfu/ml
- E. coli O157:H7 counts (log10 cfu/ml) at min 120 [1, 5]: 6.1 log10 cfu/ml
- E. coli O26:H11 counts (log10 cfu/ml) at min: 0 [2, 4]: 5.5 log10 cfu/ml
- E. coli O26:H11 counts (log10 cfu/ml) at min: 2 [2, 4]: 5.4 log10 cfu/ml
- E. coli O26:H11 counts (log10 cfu/ml) at min: 5 [2, 4]: 5.5 log10 cfu/ml
- E. coli O26:H11 counts (log10 cfu/ml) at min: 10 [2, 4]: 5.4 log10 cfu/ml
- E. coli O26:H11 counts (log10 cfu/ml) at min: 20 [2, 4]: 5.5 log10 cfu/ml
- E. coli O26:H11 counts (log10 cfu/ml) at min: 30 [2, 4]: 5.4 log10 cfu/ml
- E. coli O26:H11 counts (log10 cfu/ml) at min: 60 [2, 4]: 5.5 log10 cfu/ml
- E. coli O26:H11 counts (log10 cfu/ml) at min: 120 [2, 4]: 5.4 log10 cfu/ml
- E. coli O26:H11 counts (log10 cfu/ml) at min: 0 [2, 5]: 5.6 log10 cfu/ml
- E. coli O26:H11 counts (log10 cfu/ml) at min: 2 [2, 5]: 5.5 log10 cfu/ml
- E. coli O26:H11 counts (log10 cfu/ml) at min: 5 [2, 5]: 5.4 log10 cfu/ml
- E. coli O26:H11 counts (log10 cfu/ml) at min: 10 [2, 5]: 5.5 log10 cfu/ml
- E. coli O26:H11 counts (log10 cfu/ml) at min: 20 [2, 5]: 5.5 log10 cfu/ml
- E. coli O26:H11 counts (log10 cfu/ml) at min: 30 [2, 5]: 5.5 log10 cfu/ml
- E. coli O26:H11 counts (log10 cfu/ml) at min: 60 [2, 5]: 5.4 log10 cfu/ml
- E. coli O26:H11 counts (log10 cfu/ml) at min: 120 [2, 5]: 5.5 log10 cfu/ml
- E. coli O111:NM counts (log10 cfu/ml) at min 0 [3, 4]: 5.6 log10 cfu/ml
- E. coli O111:NM counts (log10 cfu/ml) at min 2 [3, 4]: 5.6 log10 cfu/ml
- E. coli O111:NM counts (log10 cfu/ml) at min 5 [3, 4]: 5.6 log10 cfu/ml
- E. coli O111:NM counts (log10 cfu/ml) at min 10 [3, 4]: 5.7 log10 cfu/ml
- E. coli O111:NM counts (log10 cfu/ml) at min 20 [3, 4]: 5.6 log10 cfu/ml
- E. coli O111:NM counts (log10 cfu/ml) at min 30 [3, 4]: 5.5 log10 cfu/ml
- E. coli O111:NM counts (log10 cfu/ml) at min 60 [3, 4]: 5.5 log10 cfu/ml
- E. coli O111:NM counts (log10 cfu/ml) at min 120 [3, 4]: 5.6 log10 cfu/ml
- E. coli O111:NM counts (log10 cfu/ml) at min 0 [3, 5]: 5.6 log10 cfu/ml
- E. coli O111:NM counts (log10 cfu/ml) at min 2 [3, 5]: 5.6 log10 cfu/ml
- E. coli O111:NM counts (log10 cfu/ml) at min 5 [3, 5]: 5.5 log10 cfu/ml
- E. coli O111:NM counts (log10 cfu/ml) at min 10 [3, 5]: 5.6 log10 cfu/ml
- E. coli O111:NM counts (log10 cfu/ml) at min 20 [3, 5]: 5.6 log10 cfu/ml
- E. coli O111:NM counts (log10 cfu/ml) at min 30 [3, 5]: 5.5 log10 cfu/ml
- E. coli O111:NM counts (log10 cfu/ml) at min 60 [3, 5]: 5.4 log10 cfu/ml
- E. coli O111:NM counts (log10 cfu/ml) at min 120 [3, 5]: 5.5 log10 cfu/ml
